Patent US6355269B1, “Oral compositions of levosimendan” (Orion Corporation, priority 1997, dated 2002)

What was measured:
troponin = conditions: racemic mixture; cited from earlier work
intestinal bacteria = conditions: oral administration; by intestinal bacteria; cited from earlier work
[1] = Pharmacokinetic study of levosimendan capsules, single oral dose, in healthy volunteers; format: in vivo, human; conditions: from oral compositions comprising substantially pure crystalline polymorphic form I
Method: Pharmacokinetic parameters of two different polymorphs, (I) and (II), of levosimendan in healthy volunteers after a single oral dose of 2 mg of levosimendan capsule was studied. The formulations of hard gelatin capsules (size 3) A and B were the following:
The small value of Tmax indicates rapid absorption of the drug into plasma.

| SMILES | calcium dependent binding to troponin (troponin) | metabolization in the lower gastrointestinal tract (intestinal bacteria) | dissolution and absorption into plasma [1] |
| --- | --- | --- | --- |
| CC1CC(=O)NN=C1c1ccc(NN=C(C#N)C#N)cc1 (racemic) [compound (I), [[4-(1,4,5,6-tetrahydro-4-methyl-6-oxo-3-pyridazinyl)phenyl]hydrazono]propanedinitrile] | significant calcium dependent binding to troponin |  |  |
| CC1CC(=O)NN=C1c1ccc(NN=C(C#N)C#N)cc1 (single isomer, unassigned; (-)) [levosimendan, (−)-[[4-(1,4,5,6-tetrahydro-4-methyl-6-oxo-3-pyridazinyl)phenyl]hydrazono]propanedinitrile] |  | susceptible to metabolization in the lower gastrointestinal tract by intestinal bacteria | rapidly dissolved and absorbed into plasma |
